Results taken from patent US3946040A, “Propynyl benzyl ethers” (Hoffmann-La Roche Inc., priority 1973, dated 1976).

How the values were obtained:
Format in all cases: in vivo
black bean aphids = test: Aphids: seedling of the field bean with black bean aphids sprayed; dead and surviving aphids counted; settings: stated logarithmically (3 = 10^^-3 g/cm^3); for LD50 concentration based on insect-poison: I:P 100:0; for LD50 concentration (refers to the propynyl benzyl ether itself): I:P 0:100, ether alone
Protocol: For each test, one seedling of the field bean with ca 50-100 black bean aphids is sprayed with a solution of the active ingredient(s) in acetone or an aqueous spray-wash of the active ingredient(s). The seedlings are individually placed in tubes in water. After 24 and 48 hours, the dead and surviving aphids are counted and the activity calculated in %.

flies = test: Flies: placed in sprayed petri dishes; dead or crippled flies counted; settings: after 24 hours, stated logarithmically (3 = 10^^-3 g/cm^3); for LD50 concentration based on insect-poison: I:P 100:0
Protocol: For each test, two petri dishes are sprayed with a solution of the active ingredient(s) in acetone or an aqueous spray-wash of the active ingredient(s). The dosage for each treated surface is 10^^-5 g/cm^2 = 1 kg/ha. After 2-3 hours, 10 flies aged 4-5 days are placed in each petri dish. After 1, 3 and 24 hours, the flies which are dead or crippled are counted.

spider-mite eggs = test: Spider-mites on sprayed leaf discs, assessment based on the mortality of the eggs (O); settings: stated logarithmically (3 = 10^^-3 g/cm^3), 8640 min; for LD50 concentration (O, mortality of the eggs; refers to the propynyl benzyl ether itself): I:P 0:100, ether alone
Protocol: (§1) For each test, three beam leaf discs each with a 2-day infection and with 20-40 spider-mites and eggs are sprayed with a solution of the active ingredient(s) in acetone or an aqueous spray-wash of the active ingredient(s). The dosage for each treated surface is 10^^-5 g/cm^2 = 1 kg/ha. After 2 days, the discs are assessed for dead spider-mites and after 6 days for dead spider-mites and killed eggs. (Assessment scheme: from 0-5, where 0 = 0% and 5 = 100% mortality).
O = assessment based on the mortality of the eggs.

spider-mites = test: Spider-mites on sprayed leaf discs, assessment based on the mortality of the spider-mites (W); settings: stated logarithmically (3 = 10^^-3 g/cm^3); for LD50 concentration based on insect-poison (W, mortality of the spider-mites): I:P 100:0; for LD50 concentration (W, mortality of the spider-mites; refers to the propynyl benzyl ether itself): I:P 0:100, ether alone
Protocol: as §1
W = assessment based on the mortality of the spider-mites;

[1] = Malathion group, I:P 0:100, ether alone
[2] = Methoxychlor group, I:P 0:100, ether alone
[3] = Sevin group, I:P 0:100, ether alone

**Q.** C=CCC1=C(C)C(OC(=O)C2C(C=C(C)C)C2(C)C)CC1=O (mixture of isomers) [Allethrin, 2-allyl-4-hydroxy-3-methyl-2-cyclopenten-1-one esterified with a mixture of cis and trans 2,2-dimethyl-3-(2-methylpropenyl)-cyclopropanecarboxylic acid, reference compound] was tested. Which “LD50 concentration based on insect-poison” value (black bean aphids; Allethrin alone) did it give?
**A.** 5.0

**Q.** What about the “LD50 concentration based on insect-poison” value (flies; Allethrin alone) of the same compound?
**A.** 5.5

**Q.** And the “LD50 concentration based on insect-poison (O, mortality of the eggs)” value (spider-mite eggs; Allethrin alone, I:P 100:0)?
**A.** < 3

**Q.** And the “LD50 concentration based on insect-poison (W, mortality of the spider-mites)” value (spider-mites; Allethrin alone)?
**A.** 3.4

**Q.** What does the source list for C#CCOCc1ccc2c(c1)OCO2 [A, 3,4-(methylenedioxy)-α-(2-propynyloxy)-toluene]?
**A.** LD50 concentration (refers to the propynyl benzyl ether itself) (black bean aphids; Allethrin group): 3.0; LD50 concentration (refers to the propynyl benzyl ether itself) (black bean aphids; Methoxychlor group): 3.0; LD50 concentration (refers to the propynyl benzyl ether itself) (flies; [1]): > 3.5; LD50 concentration (refers to the propynyl benzyl ether itself) (flies; [2]): > 3.5; LD50 concentration (refers to the propynyl benzyl ether itself) (flies; [3]): 3.5; LD50 concentration (W, mortality of the spider-mites; refers to the propynyl benzyl ether itself) (spider-mites; Sevin group): < 2

**Q.** For C#CCOCc1ccc(OC)c(OC)c1 [B, 3,4-dimethoxy-α-(2-propynyloxy)-toluene], which “LD50 concentration (refers to the propynyl benzyl ether itself)” value (black bean aphids; Allethrin group) is on record?
**A.** 3.0

**Q.** What about the “LD50 concentration (refers to the propynyl benzyl ether itself)” value (black bean aphids; Malathion group) of the same compound?
**A.** 3.3

**Q.** What about the “LD50 concentration (refers to the propynyl benzyl ether itself)” value (black bean aphids; Methoxychlor group) of the same compound?
**A.** 3.3

**Q.** What about the “LD50 concentration (refers to the propynyl benzyl ether itself)” value (flies; Allethrin group, I:P printed 0:10, ether alone) of the same compound?
**A.** 3.3

**Q.** And the “LD50 concentration (refers to the propynyl benzyl ether itself)” value (flies; [1])?
**A.** 3.3

**Q.** What about the “LD50 concentration (refers to the propynyl benzyl ether itself)” value (flies; [2]) of the same compound?
**A.** 3.3

**Q.** And the “LD50 concentration (refers to the propynyl benzyl ether itself)” value (flies; [3])?
**A.** 3.5

**Q.** What about the “LD50 concentration (O, mortality of the eggs; refers to the propynyl benzyl ether itself)” value (spider-mite eggs; Allethrin group) of the same compound?
**A.** 2.7

**Q.** What about the “LD50 concentration (O, mortality of the eggs; refers to the propynyl benzyl ether itself)” value (spider-mite eggs; Methoxychlor group) of the same compound?
**A.** 2.7

**Q.** And the “LD50 concentration (O, mortality of the eggs; refers to the propynyl benzyl ether itself)” value (spider-mite eggs; Sevin group)?
**A.** 2.7

**Q.** And the “LD50 concentration (W, mortality of the spider-mites; refers to the propynyl benzyl ether itself)” value (spider-mites; Allethrin group)?
**A.** 3.0

**Q.** What about the “LD50 concentration (W, mortality of the spider-mites; refers to the propynyl benzyl ether itself)” value (spider-mites; Malathion group) of the same compound?
**A.** 3.0

**Q.** And the “LD50 concentration (W, mortality of the spider-mites; refers to the propynyl benzyl ether itself)” value (spider-mites; Methoxychlor group)?
**A.** 3.0

**Q.** And the “LD50 concentration (W, mortality of the spider-mites; refers to the propynyl benzyl ether itself)” value (spider-mites; Sevin group)?
**A.** 3.0

**Q.** Which results are given for CCOC(=O)CC(SP(=S)(OC)OC)C(=O)OCC (stereo not drawn) [Malathion, S-[1,2-bis-(carbethoxy)-ethyl]-0,0-dimethyl-dithiophosphate, reference compound]?
**A.** LD50 concentration based on insect-poison (black bean aphids; Malathion alone): 5.1; LD50 concentration based on insect-poison (flies; Malathion alone): 5.1; LD50 concentration based on insect-poison (W, mortality of the spider-mites) (spider-mites; Malathion alone): < 4
